According to patent publication US12083094B2, “Cannabinoid composition and methods of treatment using the same” (CANNPAL ANIMAL THERAPEUTICS LIMITED, priority 2018, dated 2024):
Several values for one entry are separate records, joined by “and”; a condition that tells them apart may be missing. Equal values may be shown once.

Experiment: Blood sampling for THC and CBD plasma concentration after single oral dosing
Conditions: for concentration at 12 h: 12 hours post administration; for AUC: AUC for CBD concentration, canine
Method: Two compositions, IVP1 and IVP2, were administered in varying amounts in the study.
Dosage volumes were calculated prior to Day 0, to provide the target dosage in mg/kg bodyweight based on actual dog bodyweights and IVP active ingredient composition based on the Certificates of Analysis.
Blood samples of approximately 5 mL were collected at each drug concentration sampling time-point from each animal using 22-gauge needles and 5 mL syringes.
The data points from Table 4 and Table 5 were also plotted and these graphs are set out in FIGS. 1-16.

C=C(C)[C@@H]1CCC(C)=C[C@H]1c1c(O)cc(CCCCC)cc1O [CBD, Cannabidiol]
concentration at 32 h (dog, plasma, oral, CBD concentration in blood plasma, mean of dogs 5-8, 0.24 mg/kg CBD + 0.12 mg/kg THC oral once, 32 h): 0.34 ng/mL | concentration at 48 h (dog, plasma, oral, CBD concentration in blood plasma, mean of dogs 5-8, 0.24 mg/kg CBD + 0.12 mg/kg THC oral once, 48 h): 0.13 ng/mL | concentration at 72 h (dog, plasma, oral, CBD concentration in blood plasma, mean of dogs 5-8, 0.24 mg/kg CBD + 0.12 mg/kg THC oral once, 72 h): 0 ng/mL | concentration at 16 h (dog, plasma, oral, CBD concentration recorded in subjects, 16 hours post administration): 0.26 ng/mL | concentration at 32 h (dog, plasma, oral, CBD concentration recorded in subjects, 32 hours post administration): 0.28 ng/mL | concentration at 12 h (dog, plasma, oral, highest level of CBD recorded): 0.88 ng/mL | concentration at 12 h (dog, plasma, oral, lowest level of CBD recorded in a subject): 0.23 ng/mL | half-life (dog, plasma, po): 756 min | AUC (dog, plasma, po, 0.12 mg/kg, 0.12 mg/kg CBD in combination with 0.24 mg/kg THC): 30 to 50 ng·h/mL | Cmax (dog, plasma, po, 0.24 mg/kg): 5 to 69 ng/mL | AUC (dog, plasma, po, 0.24 mg/kg, 0.24 mg/kg CBD in combination with 0.12 mg/kg THC): 95 to 110 ng·h/mL | CBD concentration in blood plasma (individual dogs 1-4, 0.12 mg/kg CBD + 0.24 mg/kg THC oral once, 0 h): 0 ng/mL | CBD concentration in blood plasma (individual dogs 1-4, 0.12 mg/kg CBD + 0.24 mg/kg THC oral once, 0.67 h): 15.60 ng/mL and 18.10 ng/mL and 5.26 ng/mL and 10.10 ng/mL | CBD concentration in blood plasma (individual dogs 1-4, 0.12 mg/kg CBD + 0.24 mg/kg THC oral once, 1 h): 12.00 ng/mL and 13.60 ng/mL and 5.99 ng/mL and 13.10 ng/mL | CBD concentration in blood plasma (individual dogs 1-4, 0.12 mg/kg CBD + 0.24 mg/kg THC oral once, 1.5 h): 7.99 ng/mL and 9.07 ng/mL and 9.84 ng/mL | CBD concentration in blood plasma (individual dogs 1-4, 0.12 mg/kg CBD + 0.24 mg/kg THC oral once, 2 h): 4.48 ng/mL and 8.08 ng/mL and 8.72 ng/mL | CBD concentration in blood plasma (individual dogs 1-4, 0.12 mg/kg CBD + 0.24 mg/kg THC oral once, 3 h): 2.83 ng/mL and 2.33 ng/mL and 5.83 ng/mL and 6.25 ng/mL | CBD concentration in blood plasma (individual dogs 1-4, 0.12 mg/kg CBD + 0.24 mg/kg THC oral once, 4 h): 1.95 ng/mL and 1.24 ng/mL and 4.08 ng/mL and 4.31 ng/mL | CBD concentration in blood plasma (individual dogs 1-4, 0.12 mg/kg CBD + 0.24 mg/kg THC oral once, 6 h): 1.56 ng/mL and 0.76 ng/mL and 2.99 ng/mL and 2.75 ng/mL | CBD concentration in blood plasma (individual dogs 1-4, 0.12 mg/kg CBD + 0.24 mg/kg THC oral once, 8 h): 1.12 ng/mL and 0.53 ng/mL and 1.23 ng/mL and 2.32 ng/mL | CBD concentration in blood plasma (individual dogs 1-4, 0.12 mg/kg CBD + 0.24 mg/kg THC oral once, 12 h): 0.48 ng/mL and 0.23 ng/mL and 0.37 ng/mL and 0.55 ng/mL | CBD concentration in blood plasma (individual dogs 1-4, 0.12 mg/kg CBD + 0.24 mg/kg THC oral once, 16 h): 0.00 ng/mL (2×) and 0.26 ng/mL and 0.36 ng/mL | CBD concentration in blood plasma (individual dogs 1-4, 0.12 mg/kg CBD + 0.24 mg/kg THC oral once, 24 h): 0.00 ng/mL and 0.23 ng/mL | CBD concentration in blood plasma (individual dogs 5-8, 0.24 mg/kg CBD + 0.12 mg/kg THC oral once, 0 h): 0 ng/mL | CBD concentration in blood plasma (individual dogs 5-8, 0.24 mg/kg CBD + 0.12 mg/kg THC oral once, 0.67 h): 28.70 ng/mL and 28.10 ng/mL and 10.20 ng/mL and 53.40 ng/mL | CBD concentration in blood plasma (individual dogs 5-8, 0.24 mg/kg CBD + 0.12 mg/kg THC oral once, 1 h): 35.20 ng/mL and 20.10 ng/mL and 18.90 ng/mL and 69.10 ng/mL | CBD concentration in blood plasma (individual dogs 5-8, 0.24 mg/kg CBD + 0.12 mg/kg THC oral once, 1.5 h): 33.20 ng/mL and 27.00 ng/mL and 12.70 ng/mL and 34.60 ng/mL | CBD concentration in blood plasma (individual dogs 5-8, 0.24 mg/kg CBD + 0.12 mg/kg THC oral once, 2 h): 14.90 ng/mL and 12.60 ng/mL and 20.30 ng/mL | CBD concentration in blood plasma (individual dogs 5-8, 0.24 mg/kg CBD + 0.12 mg/kg THC oral once, 3 h): 6.33 ng/mL and 6.79 ng/mL and 7.66 ng/mL | CBD concentration in blood plasma (individual dogs 5-8, 0.24 mg/kg CBD + 0.12 mg/kg THC oral once, 4 h): 4.07 ng/mL and 4.40 ng/mL and 4.36 ng/mL | CBD concentration in blood plasma (individual dogs 5-8, 0.24 mg/kg CBD + 0.12 mg/kg THC oral once, 6 h): 3.40 ng/mL and 2.22 ng/mL and 5.74 ng/mL and 1.87 ng/mL | CBD concentration in blood plasma (individual dogs 5-8, 0.24 mg/kg CBD + 0.12 mg/kg THC oral once, 8 h): 4.68 ng/mL and 1.23 ng/mL and 4.36 ng/mL and 0.91 ng/mL | CBD concentration in blood plasma (individual dogs 5-8, 0.24 mg/kg CBD + 0.12 mg/kg THC oral once, 12 h): 0.63 ng/mL and 0.85 ng/mL and 0.72 ng/mL | CBD concentration in blood plasma (individual dogs 5-8, 0.24 mg/kg CBD + 0.12 mg/kg THC oral once, 16 h): 0.49 ng/mL and 0.65 ng/mL and 0.47 ng/mL | CBD concentration in blood plasma (individual dogs 5-8, 0.24 mg/kg CBD + 0.12 mg/kg THC oral once, 24 h): 0.28 ng/mL (2×) and 0.46 ng/mL | CBD concentration in blood plasma (individual dogs 5-8, 0.24 mg/kg CBD + 0.12 mg/kg THC oral once, 32 h): 0.39 ng/mL (2×) and 0.32 ng/mL | CBD concentration in blood plasma (individual dogs 5-8, 0.24 mg/kg CBD + 0.12 mg/kg THC oral once, 48 h): 0.00 ng/mL (2×) and 0.22 ng/mL and 0.31 ng/mL | CBD concentration in blood plasma (individual dogs 5-8, 0.24 mg/kg CBD + 0.12 mg/kg THC oral once, 72 h): 0.00 ng/mL | CBD in the subject's blood (up to 72 h after administration): detectable
